Data published in patent US20210253562A1, “ACYLSUFONAMIDE COMPOUNDS USEFUL AS EP3 RECEPTOR ANTAGONISTS” (Janssen Pharmaceutica NV, priority 2018, published 2021).
Values joined by “and” are separate entries in the source; they are usually repeats but may differ in a detail not shown here. Equal entries are not always repeated.

Target: T1, EP3 membrane (EP3 receptor) (Homo sapiens, UniProt P43115)
T1 construct: purchased Millipore HTS092M
T1 sequence (P43115 1-390): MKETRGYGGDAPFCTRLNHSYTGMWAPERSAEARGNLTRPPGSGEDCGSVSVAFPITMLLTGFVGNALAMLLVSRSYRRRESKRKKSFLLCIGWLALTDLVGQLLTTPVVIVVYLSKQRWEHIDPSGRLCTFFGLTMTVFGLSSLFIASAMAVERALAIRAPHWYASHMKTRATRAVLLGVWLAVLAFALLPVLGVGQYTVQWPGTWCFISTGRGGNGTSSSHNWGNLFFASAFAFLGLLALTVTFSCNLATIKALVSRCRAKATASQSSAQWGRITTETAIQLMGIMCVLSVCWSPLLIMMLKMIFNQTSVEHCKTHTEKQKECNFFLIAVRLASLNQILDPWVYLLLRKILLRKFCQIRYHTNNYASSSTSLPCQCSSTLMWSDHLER
Assay: [3H]-PGE2 binding; EP3 competition binding (SPA)
Experimental: Biological Example 1: [3H]-PGE2 Binding
EP3 competition binding was determined using the following materials and experimental conditions: • Beads=Perkin Elmer RPNQ0001 • [3H]PGE2=Perkin Elmer NET428025UC • 384-well plate=Perkin Elmer 6007290 • EP3 membrane=Millipore HTS092M • Membrane concentration=2 μg/well • Beads concentration=0.25 mg/well • [3H]-PGE2=2 nM; DMSO—0.1% • Binding buffer=50 mM Tris, 10 mM MgCl2, 1 mM EDTA, PH 7.4.
The reaction system was prepared by mixing 5 μl of unlabeled compound; 5 μl of diluted [3H]-PGE2; 5 μl of diluted membrane; and 15 μl of SPA beads dissolved in binding buffer (adding in the following sequence: Unlabeled compound, [3H]-PGE2, Membrane and Beads).
The binding buffer was removed from refrigeration (@ 4° C.) and allowed to warm to room temperature. Test compound (@ stock concentration of […] in DMSO) was serial dilutes (1:3) with 100% DMSO using Echo plate. Diluted test compound (30 nL) was dispensed to the 384-well assay plate (using Echo 550 Labcyte System). To each well was then added assay buffer (5 μl) and each well was spun. Beads were weighed out, dissolved in assay buffer to a concentration of 0.25 mg/15 μl. Original membrane was diluted with assay buffer to a concentration of 2 μg/5 μl. Original [3H]-PGE2 with diluted with assay buffer to a concentration of 12 nM. To each test well were then added diluted [3H]-PGE2 (5 μl), diluted membrane (5 μl), and dissolved beads (15 μl). The plate was equilibrated at room temperature on a plate shaker for 2 hours and then read with a TOPCOUNT scintillation plate reader. Results were analyzed using a Prism program with non-linear regression, one-site fit for Ki.

SMILES	Ki
Cc1cc(S(=O)(=O)NC(=O)NC/C(F)=C2\CCCc3cnn(Cc4ccc(Cl)cc4Cl)c32)sc1C [Compound #142, (Z)—N-((2-(1-(2,4-dichlorobenzyl)-1,4,5,6-tetrahydro-7H-indazol-7-ylidene)-2-fluoroethyl)carbamoyl)-4,5-dimethylthiophene-2-sulfonamide]	8 nM
O=C(NC/C(F)=C1\COCc2cnn(C3CCN(c4ccc(F)cc4)CC3)c21)NS(=O)(=O)c1cc(Cl)c(Cl)s1 [Compound #144, (E)-4,5-dichloro-N-((2-fluoro-2-(1-(1-(4-fluorophenyl)piperidin-4-yl)-1,4-dihydropyrano[4,3-c]pyrazol-7(6H)-ylidene)ethyl)carbamoyl)thiophene-2-sulfonamide]	62 nM
O=C(NC/C(F)=C1\COCc2onc(Cc3ccc(Cl)cc3Cl)c21)NS(=O)(=O)c1cc(Cl)c(Cl)s1 [Compound #145, (E)-4,5-dichloro-N-((2-(3-(2,4-dichlorobenzyl)-5H-pyrano[4,3-d]isoxazol-4(7H)-ylidene)-2-fluoroethyl)carbamoyl)thiophene-2-sulfonamide]	6 nM
COCn1nc(Cc2ccc(Cl)cc2Cl)c2c1COC/C2=C(/F)CNC(=O)NS(=O)(=O)c1cc(Cl)c(Cl)s1 [Compound #146, (E)-4,5-dichloro-N-((2-(3-(2,4-dichlorobenzyl)-1-(methoxymethyl)-1,7-dihydropyrano[3,4-c]pyrazol-4(5H)-ylidene)-2-fluoroethyl)carbamoyl)thiophene-2-sulfonamide]	22 nM
O=C(NC/C=C1\CCCc2cnn(C3CCN(Cc4ccccc4)CC3)c21)NS(=O)(=O)c1cc(Cl)c(Cl)s1 [Compound #148, (E)-N-((2-(1-(1-benzylpiperidin-4-yl)-1,4,5,6-tetrahydro-7H-indazol-7-ylidene)ethyl)carbamoyl)-4,5-dichlorothiophene-2-sulfonamide]	6 nM
CN1CCC(n2ncc3c2/C(=C/CNC(=O)NS(=O)(=O)c2cc(Cl)c(Cl)s2)CCC3)CC1 [Compound #151, (E)-4,5-dichloro-N-((2-(1-(1-methylpiperidin-4-yl)-1,4,5,6-tetrahydro-7H-indazol-7-ylidene)ethyl)carbamoyl)thiophene-2-sulfonamide]	102 nM
Cn1ccc(S(=O)(=O)NC(=O)NC/C=C2\CCCc3cnn(Cc4ccc(Cl)cc4Cl)c32)n1 [Compound #153, (E)-N-((2-(1-(2,4-dichlorobenzyl)-1,4,5,6-tetrahydro-7H-indazol-7-ylidene)ethyl)carbamoyl)-1-methyl-1H-pyrazole-3-sulfonamide]	22 nM
O=C(NC/C(F)=C1\CCCc2cnn(C3CCN(c4ccc(F)cc4)CC3)c21)NS(=O)(=O)c1cc(Cl)c(Cl)s1 [Compound #154, (Z)-4,5-dichloro-N-((2-fluoro-2-(1-(1-(4-fluorophenyl)piperidin-4-yl)-1,4,5,6-tetrahydro-7H-indazol-7-ylidene)ethyl)carbamoyl)thiophene-2-sulfonamide]	13 nM
O=C(NC/C(F)=C1\CCCc2cnn(CCc3ccc(C(F)(F)F)cc3)c21)NS(=O)(=O)c1cc(Cl)c(Cl)s1 [Compound #157, (Z)-4,5-dichloro-N-((2-fluoro-2-(1-(4-(trifluoromethyl)phenethyl)-1,4,5,6-tetrahydro-7H-indazol-7-ylidene)ethyl)carbamoyl)thiophene-2-sulfonamide]	467 nM
Cc1nc(C)c(S(=O)(=O)NC(=O)NC/C(F)=C2\CCCc3cnn(Cc4ccc(Cl)cc4Cl)c32)s1 [Compound #158, (Z)—N-((2-(1-(2,4-Dichlorobenzyl)-1,4,5,6-tetrahydro-7H-indazol-7-ylidene)-2-fluoroethyl)carbamoyl)-2,4-dimethylthiazole-5-sulfonamide]	32 nM

The next lines start with the values.

Ki	SMILES
22 nM	COc1ccc(S(=O)(=O)NC(=O)NC/C(F)=C2\CCCc3cnn(Cc4ccc(Cl)cc4Cl)c32)cc1F [Compound #159, (Z)—N-((2-(1-(2,4-Dichlorobenzyl)-1,4,5,6-tetrahydro-7H-indazol-7-ylidene)-2-fluoroethyl)carbamoyl)-3-fluoro-4-methoxybenzenesulfonamide]
217 nM	Cc1nc(C)c(S(=O)(=O)NC(=O)NC/C(F)=C2\COCc3cnn(Cc4ccc(Cl)cc4Cl)c32)s1 [Compound #160, (E)-N-((2-(1-(2,4-dichlorobenzyl)-1,4-dihydropyrano[4,3-c]pyrazol-7(6H)-ylidene)-2-fluoroethyl)carbamoyl)-2,4-dimethylthiazole-5-sulfonamide]
57 nM	COc1ccc(S(=O)(=O)NC(=O)NC/C(F)=C2\COCc3cnn(Cc4ccc(Cl)cc4Cl)c32)cc1F [Compound #161, (E)-N-((2-(1-(2,4-dichlorobenzyl)-1,4-dihydropyrano[4,3-c]pyrazol-7(6H)-ylidene)-2-fluoroethyl)carbamoyl)-3-fluoro-4-methoxybenzenesulfonamide]
> 10000 nM	O=C(NC/C=C1\CCCc2cnn(Cc3ncc(-c4ccccc4)cn3)c21)NS(=O)(=O)c1cc(Cl)c(Cl)s1 [Compound #163, (E)-4,5-dichloro-N-((2-(1-((5-phenylpyrimidin-2-yl)methyl)-1,4,5,6-tetrahydro-7H-indazol-7-ylidene)ethyl)carbamoyl)thiophene-2-sulfonamide]
3200 nM	O=C(NC/C(F)=C1\CCCn2nnc(-c3ccc(C(F)(F)F)cc3)c21)NS(=O)(=O)c1cc(Cl)c(Cl)s1 [Compound #164, (Z)-4,5-dichloro-N-((2-fluoro-2-(3-(4-(trifluoromethyl)phenyl)-6,7-dihydro-[1,2,3]triazolo[1,5-a]pyridin-4(5H)-ylidene)ethyl)carbamoyl)thiophene-2-sulfonamide]
10 nM	COc1ccc(S(=O)(=O)NC(=O)NC/C(F)=C2\COCc3cnn(Cc4ccc(Cl)cc4Cl)c32)cc1Cl [Compound #165, (E)-3-chloro-N-((2-(1-(2,4-dichlorobenzyl)-1,4-dihydropyrano[4,3-c]pyrazol-7(6H)-ylidene)-2-fluoroethyl)carbamoyl)-4-methoxybenzenesulfonamide]
6 nM and 7 nM	Cc1cc(S(=O)(=O)NC(=O)NC/C(F)=C2\COCc3cnn(Cc4ccc(Cl)cc4Cl)c32)sc1Cl [Compound #166, (E)-5-chloro-N-((2-(1-(2,4-dichlorobenzyl)-1,4-dihydropyrano[4,3-c]pyrazol-7(6H)-ylidene)-2-fluoroethyl)carbamoyl)-4-methylthiophene-2-sulfonamide]
7 nM	Cc1cc(Cl)ccc1Cc1nnn2c1/C(=C(\F)CNC(=O)NS(=O)(=O)c1cc(Cl)c(Cl)s1)CCC2 [Compound #167, (Z)-4,5-dichloro-N-((2-(3-(4-chloro-2-methylbenzyl)-6,7-dihydro-[1,2,3]triazolo[1,5-a]pyridin-4(5H)-ylidene)-2-fluoroethyl)carbamoyl)thiophene-2-sulfonamide]
232 nM	Cn1nccc1S(=O)(=O)NC(=O)NC/C(F)=C1\CCCc2cnn(Cc3ccc(Cl)cc3Cl)c21 [Compound #168, (Z)—N-((2-(1-(2,4-dichlorobenzyl)-1,4,5,6-tetrahydro-7H-indazol-7-ylidene)-2-fluoroethyl)carbamoyl)-1-methyl-1H-pyrazole-5-sulfonamide]
83 nM	Cc1c(S(=O)(=O)NC(=O)NC/C(F)=C2\CCCc3cnn(Cc4ccc(Cl)cc4Cl)c32)cnn1C [Compound #169, (Z)—N-((2-(1-(2,4-dichlorobenzyl)-1,4,5,6-tetrahydro-7H-indazol-7-ylidene)-2-fluoroethyl)carbamoyl)-1,5-dimethyl-1H-pyrazole-4-sulfonamide]
612 nM	CC(C)n1cc(S(=O)(=O)NC(=O)NC/C(F)=C2\CCCc3cnn(Cc4ccc(Cl)cc4Cl)c32)cn1 [Compound #170, (Z)—N-((2-(1-(2,4-dichlorobenzyl)-1,4,5,6-tetrahydro-7H-indazol-7-ylidene)-2-fluoroethyl)carbamoyl)-1-isopropyl-1H-pyrazole-4-sulfonamide]
18 nM	Cn1nccc1S(=O)(=O)NC(=O)NC/C=C1\CCCc2cnn(Cc3ccc(Cl)cc3Cl)c21 [Compound #171, (E)-N-((2-(1-(2,4-dichlorobenzyl)-1,4,5,6-tetrahydro-7H-indazol-7-ylidene)ethyl)carbamoyl)-1-methyl-1H-pyrazole-5-sulfonamide]
4 nM	Cc1c(S(=O)(=O)NC(=O)NC/C=C2\CCCc3cnn(Cc4ccc(Cl)cc4Cl)c32)cnn1C [Compound #172, (E)-N-((2-(1-(2,4-dichlorobenzyl)-1,4,5,6-tetrahydro-7H-indazol-7-ylidene)ethyl)carbamoyl)-1,5-dimethyl-1H-pyrazole-4-sulfonamide]
